Data reported in patent US20250144216A1, “NEAR-INFRARED PHOTODYNAMIC THERAPY USING SECOND HARMONIC GENERATION NANOPARTICLE AND VISIBLE LIGHT REACTIVE PHOTOSENSITIZER” (ARIEL SCIENTIFIC INNOVATIONS LTD., priority 2022, published 2025).

Tests used:
S. aureus (ATCC 25923) [1] = assay: microbe, parasite or virus in culture; type: cell-based
Description: Laser Setup—Laser was generated using Millennia® Pro s Series 5SJSPG (Spectra physics, USA) laser setup to generate a […] continuous wave laser which was passed through an ultra-fast oscillator Femtosource® Scientific 20 (Femtolasers, Inc.) to generate the Near Infrared (800 nm) pulsed wave (pulse frequency 76.9 MHz) beamline. The beamline was appropriately arranged to provide real-time power readings using a beam splitter. Power measurements were recorded using a compact power meter PM100D (Thorlabs, Inc.) with S370C thermal power head (Thorlabs, Inc.)).
S. aureus (ATCC 25923) were grown on Brain Heart agar plates (BHA, Acumedia, Lansing, MI, USA) for 24 hours. Grown cells were transferred into Brain Heart broth (BH, Acumedia, Lansing, MI, USA) and incubated at 37±1° C. with shaking at 170 rpm until reaching the absorbance A=0.10±0.02 at 660 nm, corresponding to a final concentration of 10^8 cells/ml and diluted appropriately to the final concentration of 10^3-10^4 cells/ml with commercially available sterile 0.9% saline solution before the light and dark phototoxicity assays.
200 μl bacterial suspensions in 0.9% sterile saline solution (10^3-10^4 cells/μl) were incubated with 20 μl of PDT nanoparticle conjugates (400 μg/ml) under laser (800 nm, 232-228 mW,76.9 MHz) with shaking for 10 minutes. […] The CFUwere counted using a colony counter Scan 500.

S. aureus (ATCC 25923) [2] = assay: Dark toxicity, viability of S. aureus (CFU count); type: cell-based; settings: dark conditions; compared to the control
Description: S. aureus (ATCC 25923) were grown on Brain Heart agar plates (BHA, Acumedia, Lansing, MI, USA) for 24 hours. […] 200 μl Cell suspensions in 0.9% saline (10^3-10^4 cells/ml) in sterile saline solution were incubated with 20 μl of PDT nanoparticle conjugates (400 μg/ml) in the dark with shaking for 30 minutes. Subsequently, aliquots of each sample (100 μl) were spread over BHA plates with a Drigalsky spreader and incubated at 37° C. for 24 h. The colony forming units (CFU) were counted using a colony counter Scan 500 (Interscience, Saint-Nom-la-Breteche, France).

Structure (SMILES): COc1cc(/C=C/C(=O)CC(=O)/C=C/c2ccc(O)c(OC)c2)ccc1O [Curcumin, curcumin]
- viability of S. aureus increased by (S. aureus (ATCC 25923) [1]; 10 minutes pulsed NIR (800 nm) laser exposure): 20.2±1.4%
- increase in viability of S. aureus (S. aureus (ATCC 25923) [2]): 14.2±1.1%

Structure (SMILES): C=CC1=C(C)c2cc3[nH]c(cc4nc(cc5[nH]c(cc1n2)c(C)c5CCC(=O)O)C(CCC(=O)O)=C4C)c(C)c3C=C [PPIX, protoporphyrin IX]
- inhibition at 400 µg/mL (S. aureus (ATCC 25923) [1]; Staphylococcus aureus, ATCC25923, 10 min, read-out: viability of S. aureus reduced by): 20.4 ± 2.5%
